# Values quoted from earlier work in patent US20090069233A1, “Agonist Peptides of Basic Fibroblast Growth Factor (bFGF) and the Method of Reduction of Wrinkles on Skin, Darkening of Hair and Acceleration of Wound Healing” (priority 2005, published 2009).
# What was measured:
# [1] = system: depigmented ear lobes of Guinea pigs; conditions: bFGF by interdermal injection
# [2] = system: depigmented skin patches of Yucatan swine; conditions: bFGF by interdermal injection
# [3] = system: artificial wound space; conditions: poly-vinyl alcohol sponge implant, histological and biochemical analysis
# [4] = system: melanocytes obtained from the uninvolved areas of untreated vitiligo subjects; conditions: in vitro cell cultures
# [5] = system: wounds of diabetic mice; conditions: wound healing experiments
Substance,repigmentation of depigmented ear lobes [1],repigmentation of depigmented skin patches [2],"neo vascularisation, number of fibroblasts and deposition of collagen in the wound space [3]",correction of abnormalities of melanocytes [4],side effects [5]
"bFGF: Basic fibroblast growth factor, a potent mitogen for melanocytes, keratinocytes and fibroblasts",found effect,found effect,increase neo vasculatisation the number of fibroblasts and the deposition of collagen in the wound space,corrects all the abnormalities of melanocytes,no side effects
"epidermal growth factor: other growth factor used as specificity control in repigmentation animal models (NSDSECPLSHDGYCLHDGVCMYIEALDKYACNCVVGYIGERCQYRDLKWWELR; UniProt P01133 971-1023, looked up) [reference compound]",did not have any effect,did not have any effect,,,
